Experimental data taken from patent US12091399B2, “Phenyltetrazole derivatives as plasma kallikrein inhibitors” (Boehringer Ingelheim International GmbH, priority 2018, dated 2024).
Square brackets hold non-standard residues; d marks the D form. Peptide text beside a SMILES is read from it. * marks the point of attachment. pNA = O=[N+]([O-])c1ccc(N*)cc1; AMC = Cc1cc(=O)oc2cc(N*)ccc12; Cha = N[CH](CC1CCCCC1)C(=O)O; Abu = CC[CH](N)C(=O)O; Ms = CS(=O)(=O)*

Key:
Assay type in all cases: biochemical
[1] = target: T1, Human PKK (Homo sapiens (Human), UniProt P03952); test: Inhibition of PKK (Ki), kinetic assay; details: 24° C., 0.25 mM H-Pro-Phe-Arg-AMC, IC50 corrected for KM
Procedure: (§1) The ability of compounds of formula (I) to inhibit plasma kallikrein (PKK), Factor XIIa (FXIIa), Factor XIa (FXIa), Factor Xa (FXa), Factor IIa (alpha-thrombin; FIIa), plasmin, trypsin, tissue kallikrein 1 (TK1), Factor Vila (FVIIa), or FVIIa complexed with Tissue Factor, phospholipids and CaCl2) (FVIIa/TF/PL/CaCl2) was determined using the following biochemical assays in assay buffer (100 mM Tris, 150 mM NaCL, adjusted to a pH of 7.8 with HCl, and containing 0.1% (w/v) BSA and 0.05% (v/v) Tween20) in the presence of 1% (v/v) DMSO:
Human PKK (1.78 nM or 0.025 U/mL; Enzyme Research Laboratories) was incubated at 24° C. with 0.25 mM fluorogenic substrate H-Pro-Phe-Arg-AMC (11295 from Bachem) and various concentrations of the test compound in assay buffer. Measurements were performed in a kinetic interval every 2nd minute for 16 min using a Spectramax M5 (Molecular Devices) with the following settings of the wavelength excitation of 350 nm and wavelength emission of 450 nm. The number of the compound corresponds to the number of the Example in the experimental section.
(§2) The pIC50 values were then fitted using a four-parametric fitting procedure using GraphPad Prism (version 6; GraphPad Software, Inc.). Respective Ki values were obtained by correction of the IC50 values for the respective KM value of the used substrate (see Table A for the obtained KM values of the used substrates) using the following formula: […]
Where the IC50 is in mol/L and the KM value in mmol/L.

[2] = target: PKK in kaolin activated human platelet poor plasma (Homo sapiens (Human), UniProt P03952); test: Inhibition of PKK in kaolin activated human PPP; details: global fit over 25, 75, 250, 750 μg/mL kaolin, 37° C.
Procedure: Platelet poor plasma (PPP) obtained from human wholeblood, anticoagulated with Na-Citrate, was incubated with various concentrations of the test compound together with either 25, 75, 250, or 750 μg/mL kaolin in assay buffer for 20 min at 37° C. such that for each kaolin dose used a concentration response was obtained for the test compound.
The number of the compound corresponds to the number of the Example in the experimental section.

[3] = target: T1, Human PKK; test: Inhibition of PKK using an endpoint assay (human PKK); details: 1 h at rt, 0.10 μM H-Pro-Phe-Arg-AMC
Procedure: as §1
Subsequently, PPACK II (Calbiochem) was added as a stop solution to achieve a final concentration of 1 μM and fluorescence was measured using an Envision Reader (PerkinElmer) with the wavelength excitation setting of 355 nm and the wavelength emission setting of 460 nm. The number of the compound corresponds to the number of the Example in the experimental section.

[4] = target: human TK1 (Homo sapiens (Human), UniProt P06870); test: Inhibition of TK1 (Ki); details: substrate KM, enzyme TK1
Procedure: as §1
Prior to the assay, human TK1 (R&D Systems) was activated by incubation with human trypsin (Calbiochem) in a 1:10,000 ratio for 15 min at 37° C. For assaying TK1 inhibitory activity, activated TK1 (31.25 nM or 1 U/mL) was incubated at 24° C. with 0.1 mM fluorogenic substrate H-Pro-Phe-Arg-AMC (11295 from Bachem) and various concentrations of the test compound in assay buffer. Measurements were performed in a kinetic interval every 2nd minute for 16 min using a Spectramax M5 (Molecular Devices) with the following settings of the wavelength excitation of 350 nm and wavelength emission of 450 nm.
(§3) The pIC50 values were then fitted using a four-parametric fitting procedure using GraphPad Prism (version 6; GraphPad Software, Inc.). […]

[5] = target: Human plasmin (Homo sapiens (Human), UniProt P00747); test: Inhibition of plasmin (Ki); details: substrate KM, enzyme Plasmin
Procedure: as §1
Measurements were performed in a kinetic interval every 2nd minute for 16 min using a Spectramax M5 (Molecular Devices) measuring the optical absorbance at 405 nm.
as §2

[6] = target: Human FVIIa (Homo sapiens (Human), UniProt P08709); test: Inhibition of FVIIa (Ki); details: substrate KM, enzyme FVIIa
Procedure: as §1
(§4) Human FVIIa (0.86 nM or 0.01 U/mL; Enzyme Research Laboratories) was incubated at 24° C. with 1.5 mM chromogenic Pefachrome® FVIIa (Loxo) and various concentrations of the test compound in assay buffer. Measurements were performed in a kinetic interval every 2nd minute for 16 min using a Spectramax M5 (Molecular Devices) measuring the optical absorbance at 405 nm.
as §2

[7] = target: FVIIa/TF/PL/CaCl2 (Homo sapiens (Human), UniProt P08709); test: Inhibition of FVIIa/TF/PL/CaCl2 (Ki); details: substrate KM, enzyme FVIIa/TF/PL/CaCl2
Procedure: as §1
as §4, with “(300” for “(0.86”, “585” for “0.01”, “Laboratories) together with 10 mM CaCl2)*2H2O and 13.3% (v/v) Dade®Innovin® (Siemens; OQUMI94E0002(5534), which contains recombinant human tissue factor synthetic phospholipids (thromboplastin),” for “Laboratories)”
as §3

T1 sequence (P03952 391-638): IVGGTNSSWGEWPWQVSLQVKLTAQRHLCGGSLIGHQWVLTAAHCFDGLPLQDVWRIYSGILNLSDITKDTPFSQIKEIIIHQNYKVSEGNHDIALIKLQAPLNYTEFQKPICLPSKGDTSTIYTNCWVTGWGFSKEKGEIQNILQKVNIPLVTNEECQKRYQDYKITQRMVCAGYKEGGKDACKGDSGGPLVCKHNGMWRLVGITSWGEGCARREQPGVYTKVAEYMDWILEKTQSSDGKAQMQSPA
T1 sequence (P03952 20-390 partner): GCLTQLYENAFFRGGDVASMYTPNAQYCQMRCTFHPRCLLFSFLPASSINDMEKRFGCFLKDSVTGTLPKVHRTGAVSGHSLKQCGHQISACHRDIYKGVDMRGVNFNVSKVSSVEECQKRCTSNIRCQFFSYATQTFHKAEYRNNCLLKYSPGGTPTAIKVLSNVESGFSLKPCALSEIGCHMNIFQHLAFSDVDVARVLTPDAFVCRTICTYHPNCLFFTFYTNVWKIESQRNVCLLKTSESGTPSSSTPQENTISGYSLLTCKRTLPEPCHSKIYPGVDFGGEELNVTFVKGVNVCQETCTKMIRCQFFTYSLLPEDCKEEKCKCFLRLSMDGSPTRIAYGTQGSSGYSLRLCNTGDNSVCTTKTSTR
PKK in kaolin activated human platelet poor plasma, sequence (P03952 391-638): as the sequence (P03952 391-638) above
PKK in kaolin activated human platelet poor plasma, sequence (P03952 20-390 partner): as the sequence (P03952 20-390 partner) above
Human plasmin, sequence (P00747 581-810): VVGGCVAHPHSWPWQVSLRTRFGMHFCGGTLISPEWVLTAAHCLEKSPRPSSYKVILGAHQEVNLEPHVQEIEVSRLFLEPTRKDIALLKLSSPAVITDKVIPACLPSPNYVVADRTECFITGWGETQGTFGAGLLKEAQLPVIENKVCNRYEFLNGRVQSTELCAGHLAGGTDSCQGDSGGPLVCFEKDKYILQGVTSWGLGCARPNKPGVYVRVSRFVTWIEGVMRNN
Human plasmin, sequence (P00747 97-580 partner): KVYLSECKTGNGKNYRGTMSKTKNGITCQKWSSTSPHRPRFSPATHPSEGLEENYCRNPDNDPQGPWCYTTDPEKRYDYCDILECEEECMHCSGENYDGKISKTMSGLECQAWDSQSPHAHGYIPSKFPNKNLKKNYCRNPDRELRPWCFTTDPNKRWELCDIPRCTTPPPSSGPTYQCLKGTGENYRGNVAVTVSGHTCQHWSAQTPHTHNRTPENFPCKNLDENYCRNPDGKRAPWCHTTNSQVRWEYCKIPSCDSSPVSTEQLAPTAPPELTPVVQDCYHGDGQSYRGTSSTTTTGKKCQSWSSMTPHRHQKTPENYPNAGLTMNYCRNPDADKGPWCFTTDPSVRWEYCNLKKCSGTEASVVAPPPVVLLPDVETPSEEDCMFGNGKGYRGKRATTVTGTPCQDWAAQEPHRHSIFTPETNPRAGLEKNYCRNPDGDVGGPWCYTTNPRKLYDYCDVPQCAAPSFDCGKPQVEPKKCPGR
human TK1, sequence (P06870 25-262): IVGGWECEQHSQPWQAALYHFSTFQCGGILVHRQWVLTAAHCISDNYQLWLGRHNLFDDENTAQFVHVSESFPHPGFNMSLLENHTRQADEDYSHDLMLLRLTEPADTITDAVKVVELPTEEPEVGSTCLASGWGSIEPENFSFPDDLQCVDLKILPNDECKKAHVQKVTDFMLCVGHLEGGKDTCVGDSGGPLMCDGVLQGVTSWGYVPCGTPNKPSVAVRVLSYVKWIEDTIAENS
FVIIa/TF/PL/CaCl2, sequence (P08709 213-466): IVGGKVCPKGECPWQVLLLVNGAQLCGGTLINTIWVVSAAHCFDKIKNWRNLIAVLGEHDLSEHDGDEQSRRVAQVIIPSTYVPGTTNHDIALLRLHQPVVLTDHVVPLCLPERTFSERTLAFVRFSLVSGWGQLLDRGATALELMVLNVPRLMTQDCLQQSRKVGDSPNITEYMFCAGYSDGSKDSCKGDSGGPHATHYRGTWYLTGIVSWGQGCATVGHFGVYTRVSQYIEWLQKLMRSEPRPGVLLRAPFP
FVIIa/TF/PL/CaCl2, sequence (P08709 61-212 partner): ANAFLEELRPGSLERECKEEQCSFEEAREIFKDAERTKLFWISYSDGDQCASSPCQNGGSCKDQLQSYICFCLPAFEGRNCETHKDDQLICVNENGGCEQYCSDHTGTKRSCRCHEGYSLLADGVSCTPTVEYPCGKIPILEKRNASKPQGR
FVIIa/TF/PL/CaCl2, sequence (P13726 33-295 partner): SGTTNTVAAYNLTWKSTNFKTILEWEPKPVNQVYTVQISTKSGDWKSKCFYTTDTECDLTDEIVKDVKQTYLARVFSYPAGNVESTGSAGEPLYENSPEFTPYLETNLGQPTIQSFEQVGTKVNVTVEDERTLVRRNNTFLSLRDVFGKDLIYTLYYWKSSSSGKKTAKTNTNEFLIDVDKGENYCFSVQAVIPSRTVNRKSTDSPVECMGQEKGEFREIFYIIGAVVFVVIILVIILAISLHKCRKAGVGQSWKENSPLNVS
Human FVIIa, sequence (P08709 213-466): as the sequence (P08709 213-466) above
Human FVIIa, sequence (P08709 61-212 partner): as the sequence (P08709 61-212 partner) above

Structure (SMILES)	Ki [1]	IC90 [2]	IC50 [3]	Km [4]	Km [5]	Km [6]	Km [7]
Cc1nc(N2CCC3(CCC3)C2)ccc1Cn1cc(C(=O)NCc2cc(Cl)ccc2-n2cnnn2)cn1 [Example 60, 1-[(6-{6-azaspiro[3.4]octan-6-yl}-2-methylpyridin-3-yl)methyl]-N-{[5-chloro-2-(1H-1,2,3,4-tetrazol-1-yl)phenyl]methyl}-1H-pyrazole-4-carboxamide]	2 nM	4070 nM	4 nM	–	–	–	–
Cc1nc(N2CC3CC3C2)ccc1Cn1cc(C(=O)NCc2cc(Cl)c(F)cc2-n2cnnn2)cn1 (centres unmarked) [Example 2]	0.8 nM	1150 nM	5 nM	–	–	–	–
Cc1nc(N2CC3CC3C2)ccc1Cn1cc(C(=O)NCc2cc(Cl)ccc2-n2cnnn2)c2cncnc21 (centres unmarked) [Example 15]	0.7 nM	419 nM	2 nM	–	–	–	–
Cc1nc(N2C[C@@H]3[C@H](C)[C@@H]3C2)ccc1Cn1cc(C(=O)NCc2cc(Cl)ccc2-n2cnnn2)cn1 [Example 87]	0.8 nM	252 nM	0.9 nM	–	–	–	–
Cc1cc(=O)oc2cc(NC(=O)[C@H](CCCNC(=N)N)NC(=O)[C@H](Cc3ccccc3)NC(=O)[C@@H]3CCCN3)ccc12 [Example I1295, H-Pro-Phe-Arg-AMC] (H-Pro-Phe-Arg-{AMC})	–	–	–	70 µM	–	–	–
Cc1nc(N2CC3(CCC3)C2)ccc1Cn1cc(C(=O)NCc2cc(Cl)ccc2-n2cnnn2)cn1 [Example 59, 1-[(6-{2-azaspiro[3.3]heptan-2-yl}-2-methylpyridin-3-yl)methyl]-N-{[5-chloro-2-(1H-1,2,3,4-tetrazol-1-yl)phenyl]methyl}-1H-pyrazole-4-carboxamide]	0.3 nM	847 nM	0.7 nM	–	–	–	–
CC(C)C[C@H](NC(=O)[C@H](N)C(C)C)C(=O)N[C@@H](CCCCN)C(=O)Nc1ccc([N+](=O)[O-])cc1 [Example S2251] (H-[dV]-Leu-Lys-pNA)	–	–	–	–	1450 µM	–	–
Cn1cc(-c2nn(Cc3ccc(N4CC5CC5C4)nc3)cc2C(=O)NCc2cc(Cl)ccc2-n2cnnn2)cn1 (centres unmarked) [Example 46]	1 nM	341 nM	0.7 nM	–	–	–	–
Cc1nc(N2CC3C(C2)C3(F)F)ccc1Cn1cc(C(=O)NCc2cc(Cl)ccc2-n2cnnn2)cn1 (centres unmarked) [Example 6]	–	184 nM	0.4 nM	–	–	–	–
Cc1nc(N2CC3(C2)CC3(F)F)ccc1Cn1cc(C(=O)NCc2cc(Cl)ccc2-n2cnnn2)cn1 [Example 54]	1 nM	969 nM	3 nM	–	–	–	–
Cc1nc(N2CC3CC3C2)ccc1Cn1cc(C(=O)NCc2c(-n3cnnn3)ccc(Cl)c2F)cn1 (centres unmarked) [Example 3]	0.2 nM	170 nM	0.4 nM	–	–	–	–
CCC(NC(=O)C(CC1CCCCC1)NS(C)(=O)=O)C(=O)NC(CCCN=C(N)N)C(=O)Nc1ccc([N+](=O)[O-])cc1 (centres unmarked) [Pefachrome ® FVIIa] (Ms-[Cha]-[Abu]-Arg-pNA; configuration not given here)	–	–	–	–	–	420 µM	3920 µM
O=C(NCc1cc(Cl)ccc1-n1cnnn1)c1cn(Cc2ccc(N3CC4CC4C3)nc2)c2ncccc12 (centres unmarked) [Example 45]	0.3 nM	106 nM	3 nM	–	–	–	–
O=C(NCc1cc(Cl)ccc1-n1cnnn1)c1cn(Cc2ccc(N3CC4CC4C3)nc2)nc1C(F)F (centres unmarked) [Example 44]	0.5 nM	341 nM	1 nM	–	–	–	–
Cc1nc(N2CC3(CC3)C2)ccc1Cn1cc(C(=O)NCc2cc(Cl)ccc2-n2cnnn2)cn1 [Example 63, 1-[(6-{5-azaspiro[2.3]hexan-5-yl}-2-methylpyridin-3-yl)methyl]-N-{[5-chloro-2-(1H-1,2,3,4-tetrazol-1-yl)phenyl]methyl}-1H-pyrazole-4-carboxamide]	0.3 nM	209 nM	0.5 nM	–	–	–	–
Cc1nc(N2CC3(CNC(=O)C3)C2)ccc1Cn1cc(C(=O)NCc2cc(Cl)ccc2-n2cnnn2)cn1 [Example 74, N-{[5-chloro-2-(1H-1,2,3,4-tetrazol-1-yl)phenyl]methyl}-1-[(2-methyl-6-{7-oxo-2,6-diazaspiro[3.4]octan-2-yl}pyridin-3-yl)methyl]-1H-pyrazole-4-carboxamide]	–	–	232 nM	–	–	–	–

Next, values leading:

Ki [1]	IC90 [2]	IC50 [3]	Km [4]	Km [5]	Km [6]	Km [7]	Structure (SMILES)
1 nM	257 nM	0.6 nM	–	–	–	–	Cc1nc(N2CC3CC3C2)ccc1Cn1cc(C(=O)NCc2cc(Cl)ccc2-n2cnnn2)c(-c2cnn(C)c2)n1 (centres unmarked) [Example 42]
0.3 nM	202 nM	0.5 nM	–	–	–	–	Cc1nc(N2CC3CC3C2)ccc1Cn1cc(C(=O)NCc2cc(Cl)ccc2-n2cnnn2)cn1 (centres unmarked) [Example 1, 1-[(6-{3-azabicyclo[3.1.0]hexan-3-yl}-2-methylpyridin-3-yl)methyl]-N-{[5-chloro-2-(1H-1,2,3,4-tetrazol-1-yl)phenyl]-methyl}-1H-pyrazole-4-carboxamide]
0.5 nM	316 nM	0.8 nM	–	–	–	–	Cc1nc(N2CC3CC3C2)ccc1Cn1cc(C(=O)NCc2cc(Cl)ccc2-n2cnnn2)c(N)n1 (centres unmarked) [Example 48]
0.4 nM	103 nM	0.6 nM	–	–	–	–	Nc1nn(Cc2ccc(N3CC4CC4C3)nc2)cc1C(=O)NCc1cc(Cl)ccc1-n1cnnn1 (centres unmarked) [Example 52]
1 nM	713 nM	3 nM	–	–	–	–	COc1nn(Cc2ccc(N3CC4CC4C3)nc2C)cc1C(=O)NCc1cc(Cl)ccc1-n1cnnn1 (centres unmarked) [Example 21]
0.8 nM	396 nM	0.9 nM	–	–	–	–	COCc1nn(Cc2ccc(N3CC4CC4C3)nc2C)cc1C(=O)NCc1cc(Cl)ccc1-n1cnnn1 (centres unmarked) [Example 13]
0.7 nM	711 nM	3 nM	–	–	–	–	COc1nn(Cc2ccc(N3CC4CC4C3)nc2)cc1C(=O)NCc1cc(Cl)ccc1-n1cnnn1 (centres unmarked) [Example 47]
0.8 nM	239 nM	1 nM	–	–	–	–	Cc1nc(N2CC3CC3C2)ccc1Cn1cc(C(=O)NCc2cc(Cl)ccc2-n2cnnn2)c(C(F)F)n1 (centres unmarked) [Example 9]
0.4 nM	316 nM	0.9 nM	–	–	–	–	Cc1ccc(-n2cnnn2)c(CNC(=O)c2cnn(Cc3ccc(N4CC5CC5C4)nc3C)c2)c1 (centres unmarked) [Example 5]
–	–	2 nM	–	–	–	–	Cc1nc(N2CC3CC3C2)ncc1Cn1cc(C(=O)NCc2cc(Cl)ccc2-n2cnnn2)c(C)n1 (centres unmarked) [Example 31]
0.4 nM	932 nM	1 nM	–	–	–	–	Cc1nc(N2CC3CC3C2)ccc1Cn1cc(C(=O)NCc2cc(Cl)ccc2-n2cnnn2)c(Br)n1 (centres unmarked) [Example 49]
